Measured values from patent US12122785B2, “Substituted pyridines, pyridazines, pyrimidines, and 1,2,4-triazines as TYK2 inhibitors” (Sudo Biosciences Limited, priority 2021, dated 2024).

How the values were obtained:
Format in all cases: cell-based
[1] = tested on: TYK2 pseudokinase (JH2); IL-23-stimulated HEK-Blue IL-23 cells; assay: HEK-Blue IL-23 reporter assay (STAT3-inducible SEAP) for profiling TYK2 pseudokinase (JH2) inhibition; settings: 10 ng/mL human recombinant IL-23, SEAP readout, read-out: IL23 (TYK2 inhibitory activity, IC50)
Experimental: (§1) Example B-1: HEK-Blue™ IL-23 and IFNα/β Reporter Assays for Profiling TYK2 Pseudokinase (JH2) Inhibition
(§2) HEK-Blue™ IL-23 and IFNα/β cells with a stably-integrated cytokine receptor and STAT3 or STAT1 express STAT-inducible secreted embryonic alkaline phosphatase (SEAP) reporter gene upon cytokine stimulation. These cells are plated in DMEM (Gibco) containing 10% heat-inactivated FBS (Gibco) and 100 U/mL PenStrep (Gibco) at 37° C. under 5% CO2 conditions for 20-22 hours. The cells are then pretreated with serially diluted test compounds for 60 min prior to stimulation with either 10 ng/mL human recombinant IL-23 (Miltenyl Biotech) or 1 ng/mL human recombinant IFNα (InvivoGen) for 22-24 hours for IL-23 or 16-18 h for IFNα. SEAP induction is measured using the QUANTI Blue™ Solution (InvivoGen) according to the manufacturer's instructions.

[2] = tested on: IFNγ-stimulated HEK-Blue IFNγ reporter cells; assay: HEK-Blue IFNγ reporter assay (STAT1-inducible SEAP) for determining selectivity; settings: 50 ng/mL human recombinant IFNγ, 24 hours, read-out: IFN-γ SEAP selectivity assay IC50
Experimental: (§3) Example B-3: HEK-Blue™ IL-2 and IFNγ Reporter Assays for Determining Selectivity
(§4) HEK-Blue™ IL-2 and IFNγ reporter cells with a stably-integrated cytokine receptor and STAT5 or STAT1 express STAT-inducible secreted embryonic alkaline phosphatase (SEAP) reporter gene upon cytokine stimulation. These cells were plated in DMEM (Gibco) containing 10% heat-inactivated FBS (Gibco) and 100 U/mL PenStrep (Gibco) at 37° C. under 5% CO2 conditions for 20-22 hours. The cells were then pretreated with serially diluted test compounds for 60 min prior to stimulation with either 4 ng/mL human recombinant IL-2 (Miltenyl Biotech) or 50 ng/mL human recombinant IFNγ (InvivoGen) for 24 hours. SEAP induction was measured using the QUANTI-Blue™ Solution (InvivoGen) according to the manufacturer's instructions.

[3] = tested on: TYK2 pseudokinase (JH2); IFNα-stimulated HEK-Blue IFNα/β cells; assay: HEK-Blue IFNα/β reporter assay (STAT1-inducible SEAP) for profiling TYK2 pseudokinase (JH2) inhibition; settings: 1 ng/mL human recombinant IFNα, SEAP readout, read-out: IFNα (TYK2 inhibitory activity, IC50)
Experimental: as §1, §2

[4] = tested on: IL-2-stimulated HEK-Blue IL-2 reporter cells; assay: HEK-Blue IL-2 reporter assay (STAT5-inducible SEAP) for determining selectivity; settings: 4 ng/mL human recombinant IL-2, 24 hours
Experimental: as §3, §4

[2H]C([2H])([2H])NC(=O)c1nnc(NC(=O)C2CC2)cc1Nc1cccc2c1N(C)Cc1cc(C)nn1-2 [Compound 52, 6-(cyclopropanecarboxamido)-4-((2,5-dimethyl-4,5-dihydropyrazolo[1,5-a]quinoxalin-6-yl)amino)-N-(methyl-d3)pyridazine-3-carboxamide]
IC50 [1]: < 30 nM
IC50 [2]: 300 to 1000 nM
IC50 [3]: < 30 nM
IC50 [4]: > 1000 nM

[2H]C([2H])([2H])NC(=O)c1nnc(NC(=O)NC)cc1Nc1cccc2c1N(C)C([2H])([2H])c1cn(C)nc1-2 [Compound 33, 4-((2,5-dimethyl-4,5-dihydro-2H-pyrazolo[4,3-c]quinolin-6-yl-4,4-d2)amino)-N-(methyl-d3)-6-(3-methylureido)pyridazine-3-carboxamide]
IC50 [1]: < 30 nM
IC50 [2]: 300 to 1000 nM
IC50 [3]: < 30 nM
IC50 [4]: > 1000 nM

[2H]C([2H])([2H])NC(=O)c1nnc(NC(=O)NC)cc1Nc1nccc2c1N(C)[C@@H](C)c1cn(C)nc1-2 (single isomer, unassigned) [Compound 80]
IC50 [1]: < 30 nM
IC50 [2]: > 1000 nM
IC50 [3]: < 30 nM
IC50 [4]: > 1000 nM

[2H]C([2H])([2H])NC(=O)c1cnc(NC(=O)C2CC2)cc1Nc1nccc2c1N(C)C([2H])([2H])c1cc(C)nn1-2 [Compound 76, 6-(cyclopropanecarboxamido)-4-((2,5-dimethyl-4,5-dihydropyrazolo[1,5-a]pyrido[3,4-e]pyrazin-6-yl-4,4-d2)amino)-N-(methyl-d3)nicotinamide]
IC50 [1]: < 30 nM
IC50 [2]: 300 to 1000 nM
IC50 [3]: < 30 nM
IC50 [4]: > 1000 nM

CNC(=O)c1nnc(NC(=O)C2CC2)cc1Nc1cccc2c1OCc1cn(C3COC3)nc1-2 [Compound 4, 6-(cyclopropanecarboxamido)-N-methyl-4-((2-(oxetan-3-yl)-2,4-dihydrochromeno[4,3-c]pyrazol-6-yl)amino)pyridazine-3-carboxamide]
IC50 [1]: 30 to 300 nM
IC50 [2]: > 1000 nM
IC50 [3]: > 1000 nM
IC50 [4]: 300 to 1000 nM

CNC(=O)c1nnc(NC(=O)C2CC2)cc1Nc1cccc2c1OC(C)c1cn(C)nc1-2 (centres unmarked) [Compound 10, 6-(cyclopropanecarboxamido)-4-((2,4-dimethyl-2,4-dihydrochromeno[4,3-c]pyrazol-6-yl)amino)-N-methylpyridazine-3-carboxamide]
IC50 [1]: 30 to 300 nM
IC50 [3]: > 1000 nM

[2H]C([2H])([2H])NC(=O)c1nnc(NC(=O)C2CC2)cc1Nc1cccc2c1N(C)Cc1cn(C(C)C)nc1-2 [Compound 91, 6-(cyclopropanecarboxamido)-4-((2-isopropyl-5-methyl-4,5-dihydro-2H-pyrazolo[4,3-c]quinolin-6-yl)amino)-N-(methyl-d3)pyridazine-3-carboxamide]
IC50 [1]: < 30 nM
IC50 [3]: 30 to 300 nM

[2H]C([2H])([2H])NC(=O)c1nnc(NC(=O)C2CC2)cc1Nc1nccc2c1N(C)[C@H](C)c1cc(C)nn1-2 [Compound 81, (R)-6-(cyclopropanecarboxamido)-N-(methyl-d3)-4-((2,4,5-trimethyl-4,5-dihydropyrazolo[1,5-a]pyrido[3,4-e]pyrazin-6-yl)amino)pyridazine-3-carboxamide]
IC50 [1]: < 30 nM
IC50 [3]: < 30 nM

[2H]C([2H])([2H])NC(=O)c1nnc(NC(=O)C2CC2)cc1Nc1nccc2c1N(C)[C@@H](C)c1cn(C)nc1-2 (single isomer, unassigned) [Compound 69]
IC50 [1]: 30 to 300 nM
IC50 [3]: 30 to 300 nM

[2H]C([2H])([2H])NC(=O)c1cnc(NC(=O)C2CC2)cc1Nc1cccc2c1N(C)Cc1cc(C)nn1-2 [Compound 53, 6-(cyclopropanecarboxamido)-4-((2,5-dimethyl-4,5-dihydropyrazolo[1,5-a]quinoxalin-6-yl)amino)-N-(methyl-d3)nicotinamide]
IC50 [1]: < 30 nM
IC50 [2]: 30 to 300 nM
IC50 [3]: < 30 nM
IC50 [4]: > 1000 nM

[2H]C([2H])([2H])NC(=O)c1cnc(N2CCN(C(C)C)C2=O)cc1Nc1cccc2c1N(C)C([2H])([2H])c1cn(C)nc1-2 [Compound 63, 4-((2,5-dimethyl-4,5-dihydro-2H-pyrazolo[4,3-c]quinolin-6-yl-4,4-d2)amino)-6-(3-isopropyl-2-oxoimidazolidin-1-yl)-N-(methyl-d3)nicotinamide]
IC50 [1]: < 30 nM
IC50 [2]: > 1000 nM
IC50 [3]: 30 to 300 nM
IC50 [4]: > 1000 nM

[2H]C([2H])([2H])NC(=O)c1nnc(NC(=O)NC)cc1Nc1nccc2c1N(C)Cc1cc(C)nn1-2 [Compound 79, 4-((2,5-dimethyl-4,5-dihydropyrazolo[1,5-a]pyrido[3,4-e]pyrazin-6-yl)amino)-N-(methyl-d3)-6-(3-methylureido)pyridazine-3-carboxamide]
IC50 [1]: < 30 nM
IC50 [2]: > 1000 nM
IC50 [3]: 30 to 300 nM
IC50 [4]: > 1000 nM

[2H]C([2H])([2H])NC(=O)c1cnc(NC(=O)C2CC2)cc1Nc1nccc2c1N(C)Cc1cc(C)nn1-2 [Compound 71, 6-(cyclopropanecarboxamido)-4-((2,5-dimethyl-4,5-dihydropyrazolo[1,5-a]pyrido[3,4-e]pyrazin-6-yl)amino)-N-(methyl-d3)nicotinamide]
IC50 [1]: < 30 nM
IC50 [2]: > 1000 nM
IC50 [3]: < 30 nM
IC50 [4]: > 1000 nM

[2H]C([2H])([2H])NC(=O)c1nnc(NC(=O)C2CC2)cc1Nc1cccc2c1N(C)Cc1cc(C(F)(F)F)nn1-2 [Compound 54, 6-(cyclopropanecarboxamido)-N-(methyl-d3)-4-((5-methyl-2-(trifluoromethyl)-4,5-dihydropyrazolo[1,5-a]quinoxalin-6-yl)amino)pyridazine-3-carboxamide]
IC50 [1]: 30 to 300 nM
IC50 [3]: 300 to 1000 nM

CNC(=O)c1nnc(Nc2ccc(F)cn2)cc1Nc1cccc2c1OC(C)c1cn(C)nc1-2 (centres unmarked) [Compound 11, 4-((2,4-dimethyl-2,4-dihydrochromeno[4,3-c]pyrazol-6-yl)amino)-6-((5-fluoropyridin-2-yl)amino)-N-methylpyridazine-3-carboxamide]
IC50 [1]: 30 to 300 nM
IC50 [3]: > 1000 nM

[2H]C([2H])([2H])NC(=O)c1cnc(NC(=O)C2COC2)cc1Nc1cccc2c1N(C)Cc1cn(C)nc1-2 [Compound 24, 4-((2,5-dimethyl-4,5-dihydro-2H-pyrazolo[4,3-c]quinolin-6-yl)amino)-N-(methyl-d3)-6-(oxetane-3-carboxamido)nicotinamide]
IC50 [1]: 30 to 300 nM
IC50 [3]: 30 to 300 nM

[2H]C([2H])([2H])NC(=O)c1cnc(NC(=O)C2CC2)cc1Nc1cccc2c1N(C)[C@H](C)c1cn(C)nc1-2 (single isomer, unassigned) [Compound 31]
IC50 [1]: < 30 nM
IC50 [3]: 30 to 300 nM

[2H]C([2H])([2H])NC(=O)c1cnc(NC(=O)C2CC2)cc1Nc1cccc2c1N(C)Cc1cn(C(C)C)nc1-2 [Compound 37, 6-(cyclopropanecarboxamido)-4-((2-isopropyl-5-methyl-4,5-dihydro-2H-pyrazolo[4,3-c]quinolin-6-yl)amino)-N-(methyl-d3)nicotinamide]
IC50 [1]: < 30 nM
IC50 [3]: 30 to 300 nM

[2H]C([2H])([2H])NC(=O)c1nnc(NC(=O)NC)cc1Nc1nccc2c1N(C)[C@H](C)c1cn(C)nc1-2 (single isomer, unassigned) [Compound 78]
IC50 [1]: 30 to 300 nM
IC50 [3]: 300 to 1000 nM

[2H]C([2H])([2H])NC(=O)c1nnc(N(C)C(=O)C2CC2)cc1Nc1nccc2c1N(C)C([2H])([2H])c1cn(C)nc1-2 [Compound 62, 4-((2,5-dimethyl-4,5-dihydro-2H-pyrazolo[4,3-c][1,7]naphthyridin-6-yl-4,4-d2)amino)-N-(methyl-d3)-6-(N-methylcyclopropanecarboxamido)pyridazine-3-carboxamide]
IC50 [1]: < 30 nM
IC50 [3]: 30 to 300 nM

[2H]C([2H])([2H])NC(=O)c1cnc(NC(=O)C2CC2)cc1Nc1cccc2c1N(C)Cc1cc(C(F)(F)F)nn1-2 [Compound 55, 6-(cyclopropanecarboxamido)-N-(methyl-d3)-4-((5-methyl-2-(trifluoromethyl)-4,5-dihydropyrazolo[1,5-a]quinoxalin-6-yl)amino)nicotinamide]
IC50 [1]: 30 to 300 nM
IC50 [3]: 300 to 1000 nM

[2H]C([2H])([2H])NC(=O)c1nnc(NC(=O)C2CC2)cc1Nc1nccc2c1N(C)C([2H])([2H])c1cn(C)nc1-2 [Compound 72, 6-(cyclopropanecarboxamido)-4-((2,5-dimethyl-4,5-dihydro-2H-pyrazolo[4,3-c][1,7]naphthyridin-6-yl-4,4-d2)amino)-N-(methyl-d3)pyridazine-3-carboxamide]
IC50 [1]: < 30 nM
IC50 [4]: 300 to 1000 nM
